Reference: US12510479B2, “Systems, devices, and methods for compound screening using predictive tagging” (ALLEN INSTITUTE, priority 2020, dated 2025)
“Also recorded” adds a separate entry of the source.

Assays:
Type in all cases: cell-based, human
AICS-44 (Golgi) = assay: Predicted, label free imaging of drug effects (FIG. 10C, 10E); settings: AICS-44 cells; predicted label free images
From the text: (§1) FIGS. 10A-10H show the predicted, label free imaging effects of different drugs on different, differentiated, hiPSC cell lines. […] Brefeldin inhibits protein transport from the endoplasmic reticulum to the golgi complex indirectly by preventing association of COP-I coat to the Golgi membrane.

AICS-61 (Histone) = assay: Predicted, label free imaging of drug effects (FIG. 10B, 10G); settings: AICS-61 cells; predicted label free images
From the text: as §1

[1] = test system: AICS-24 (non-muscle Myosin); assay: Predicted, label free imaging of drug effects (FIG. 10D); settings: AICS-24 cells; predicted label free images
From the text: as §1

hiPSC = assay: Effect on microtubules and DNA during mitosis (FIG. 7)
From the text: Microtubules, DNA, and Cell membrane are each labeled.

[2] = test system: hiPSC Cell Line ID: AICS-0061 c1.36 Histone H2B type 1-J mEGFP-tagged; assay: Fluorescence imaging of Histone H2B mEGFP-tagged hiPSCs (FIG. 8E-8F); settings: 5 μM, 2 hours; mEGFP DNA tag; vs DMSO control
From the text: (§2) The fluorescent signal from the hiPSC Cell Line ID: AICS-0061 c1.36 Histone H2B type 1-J mEGFP-tagged (DNA tag) was used to train and validate the label free prediction model.

[3] = test system: hiPSC Cell Line ID: AICS-0061 c1.36 Histone H2B type 1-J mEGFP-tagged; assay: Label free prediction of condensed DNA from brightfield images (FIG. 8C-8D); settings: 5 μM, 2 hours, vs DMSO control
From the text: as §2
FIGS. 8C and 8D show the predicted images, based on the label free prediction model, obtained by imaging the nucleus of the cells with brightfield microscopy, and predicting the location and amount of condensed DNA, based on the trained model.

[4] = test system: Cell Line ID: AICS-0012 c1.105, Alpha tubulin mEGFP-tagged; assay: Fluorescence imaging of Alpha tubulin mEGFP-tagged hiPSCs (FIG. 9E-9F); settings: 5 μM, 2 hours, vs DMSO control
From the text: (§3) Predicted imaging was also used with H2B (DNA) on Cell Line ID: AICS-0012 c1.105, Alpha tubulin mEGFP-tagged, to confirm the phenotype by two structures from the same cells.

[5] = test system: Cell Line ID: AICS-0012 c1.105, Alpha tubulin mEGFP-tagged; assay: Label free prediction of condensed DNA from brightfield images (FIG. 9C-9D); settings: 5 μM, 2 hours, vs DMSO control
From the text: as §3
FIGS. 9C and 9D show the predicted images, based on the label free prediction model, obtained by imaging the nucleus of the cells with brightfield microscopy, and predicting the location and amount of condensed DNA, based on the trained model.

[6] = test system: EGFP-tagged cell lines AICS-23, AICS-44, AICS-61, AICS-24 and AICS-16; assay: Drug perturbation signature using label free prediction of DNA (FIG. 11A-11C); settings: population statistics after DNA segmentation of label free prediction
Experimental: FIG. 11A-11C show the drug perturbation signature using label free prediction, as described herein.
These signatures were distinct from those of other drug perturbations such as BIX, Brefeldin, H89, and Monensin. The identification of these perturbation signatures were performed in the following EGFP-tagged cell lines; AICS-23 (tight junction), AICS-44 (Golgi), AICS-61 (Histone), AICS-24 (non-muscle Myosin) and AICS-16 (beta Actin) without additional introduction of DNA signals.

AICS-16 (beta Actin) = assay: Predicted, label free imaging of drug effects (FIG. 10F, 10H); settings: AICS-16 cells; predicted label free images
From the text: as §1

Question: With COc1cc2nc(N3CCCN(C)CC3)nc(NC3CCN(Cc4ccccc4)CC3)c2cc1OC [BIX-01294] as the molecule, how does the “predicted effect on DNA, nuclear size, or microtubule formation” value (shortened to “predicted effect on DNA, nuclear size”) (AICS-44 (Golgi)) read?
Answer: no predicted effect on DNA, nuclear size, or microtubule formation

Question: How did the “predicted effect on DNA, nuclear size” value (AICS-44 (Golgi)) turn out when C[C@H]1CCC/C=C/[C@@H]2C[C@H](O)C[C@H]2[C@H](O)/C=C/C(=O)O1 [Brefeldin] was run?
Answer: no predicted effect on DNA, nuclear size, or microtubule formation

Question: Which “predicted effect on DNA, nuclear size” value (AICS-61 (Histone)) does the source give for O=S(=O)(NCCNC/C=C/c1ccc(Br)cc1)c1cccc2cnccc12 [H89] here?
Answer: no predicted effect on DNA, nuclear size, or microtubule formation

Question: With CC[C@@]1([C@@H]2O[C@@H]([C@H]3O[C@@](O)(CO)[C@H](C)C[C@@H]3C)C[C@@H]2C)CC[C@H]([C@]2(C)CC[C@]3(C[C@H](O)[C@@H](C)[C@@H]([C@@H](C)[C@@H](OC)[C@H](C)C(=O)O)O3)O2)O1 [Monensin] as the molecule, how does the “predicted effect on DNA, nuclear size” value [1] read?
Answer: no predicted effect on DNA, nuclear size, or microtubule formation

Question: Which microtubule bundle thickness (hiPSC) does the source give for CC(=O)O[C@H]1C(=O)[C@@]2(C)[C@H]([C@H](OC(=O)c3ccccc3)[C@]3(O)C[C@H](OC(=O)[C@H](O)[C@@H](NC(=O)c4ccccc4)c4ccccc4)C(C)=C1C3(C)C)[C@]1(OC(C)=O)CO[C@@H]1C[C@@H]2O [Paclitaxel] here?
Answer: increases microtubule bundle thickness

Question: What about the “effect on hiPSC division” value (hiPSC; mitosis) of the same molecule?
Answer: arrest of cells in metaphase

Question: And the microtubule density (hiPSC; mitosis, FIG. 7)?
Answer: increase in microtubule density

Question: And the “condensed DNA, fluorescence image” value [2]?
Answer: increase in condensed DNA

Question: What about the “amount of condensed DNA in predicted images” value [3] of the same molecule?
Answer: higher than the control cells

Question: What about the “microtubule formation, fluorescence image” value [4] of the same molecule?
Answer: increase in microtubule formation

Question: And the “amount of condensed DNA in predicted images” value [5]?
Answer: higher than the control cells

Question: What about the “predicted effect on DNA, nuclear size” value (AICS-61 (Histone)) of the same molecule?
Answer: condensed DNA (condensed microtubules)

Question: What about the “condensed DNA frequency (perturbation signature in predicted images)” value [6] of the same molecule?
Answer: increase in frequency of DNA condensation frequency; also recorded: increased condensed DNA Frequency

Question: What about the “nuclear density (perturbation signature in predicted images)” value [6] of the same molecule?
Answer: higher nuclear density

Question: And the “nuclear volume (perturbation signature in predicted images)” value [6]?
Answer: larger nuclear volume

Question: With C/C=C(/C)C(=O)O[C@H]1C(C)=C2[C@H]([C@@H]1OC(=O)CCCCCCC)[C@@](C)(OC(C)=O)C[C@H](OC(=O)CCC)[C@@]1(O)[C@H]2OC(=O)[C@@]1(C)O [Thapsigargin] as the molecule, how does the “predicted effect on DNA, nuclear size” value (AICS-16 (beta Actin)) read?
Answer: no predicted effect on DNA, nuclear size, or microtubule formation
